Assay results as given in patent US20130072517A1 (Avanir Pharmaceuticals, Inc., priority 2002, published 2013).

Key:
[1] = Clinical Study #2: plasma pharmacokinetics of dextromethorphan, dextrorphan and quinidine, single and multiple dose; conditions: for AUC(0-t) / Cmax / half-life / Tmax: human, in vivo, mean, 30 mg DM HBr/25 mg Q sulfate capsule every 12 hours; for AUC(0-t): AUC (0-12) (plasma); for Cmax: Cmax (plasma); for half-life: T ½ el (plasma); for Tmax: Tmax (plasma)
Experimental: Descriptive statistics for each parameter, including mean, median, standard deviation, coefficient of variation, N, minimum, and maximum were calculated for all of the subjects by Day. In addition, descriptive statistics were presented by the subgroups: extensive metabolizer (EM) and poor metabolizer (PM).
The ANOVA model included the factors group (EM or PM), subject within group, day, and the interaction term day by group. The group effect was tested using the subject within group mean square, and all other main effects were tested using the residual error (error mean square). In addition, tests of the hypotheses Day 1=Day 4, Day 1=Day 8, and Day 4=Day 8 were performed.

[2] = system: ALS subjects with pseudobulbar affect; assay: Clinical Study #4: QOL and QOR visual analog scales; assay type: in vivo, human
Experimental: Subjects completed the CNS-LS questionnaire and visual analog scales assessing quality of life (QOL) and quality of relationships (QOR) every two weeks (Days 1, 15, and 29) during the treatment period. A clinical psychologist, or other approved clinician, administered the Hamilton Rating Scale for Depression (HRSD) at the Screening Visit and on Day 29. Safety was evaluated on Day 15 and Day 29 by examining adverse events, results of physical examinations, vital signs, clinical laboratory values, and resting electrocardiograms (ECGs). In addition to blood samples taken to provide clinical laboratory data, blood was also taken for pharmacokinetic analysis and CYP2D6 genotyping. Each subject completed a diary in which the number of episodes experienced, medications taken, and any adverse events were recorded daily.
The primary efficacy variable was the CNS-LS score. All efficacy variables involving a change were determined by the baseline score being subtracted from the mean of the non-missing scores on Days 15 and 29. The secondary efficacy variables were laughing/crying episodes, QOL scores, and QOR scores. […]
Secondary efficacy was assessed by using two, 10-cm visual analog scales (VAS). One scale asked subjects to rate how much uncontrollable laughter, tearfulness, or anger had affected the overall quality of their life during the past week, and one scale asked subjects to rate how much uncontrollable laughter, tearfulness, or anger had affected the quality of their relationships with others during the past week. Each scale required less than one minute to complete. The subjects recorded episodes of pathological laughing and crying in a diary daily.

[3] = Clinical Study #4: concentrations of DM, DX and Q in plasma on Day 29; assay type: in vivo, human; conditions: blood collection within 8 hours of last dose
Experimental: Values were obtained for systolic and diastolic blood pressure, heart rate, and respiration rate on the screening visit and all other study visits. All values outside the pre-defined ranges were flagged in the subject data listings. Electrocardiography (twelve lead) was used to obtain ventricular rate (VR), QT, Q-Tc intervals, […] (PR), and QRS duration. A blood sample (10 mL whole blood) was taken from each subject at the Screening Visit for CYP2D6 genotyping to determine which subjects were poor metabolizers of DM and which were extensive metabolizers. Blood samples were taken on Day 29 for the determination of concentrations of DM, DX, and Q in plasma. The relationship between the concentration of drug in plasma and changes in CNS-LS scores was determined, and the effect of the CYP2D6 genotype on this relationship was evaluated.
Q in this combination product inhibits the rapid first-pass metabolism of DM.

[4] = All Days: mean of scores on Days 15 and 29 minus Day 1

COc1ccc2c(c1)[C@]13CCCCC1[C@H](C2)N(C)CC3 (single isomer, unassigned; (+)) [Dextromethorphan, (+)-3-methoxy-N-methylmorphinan]
AUC(0-t) ([1]; Day 1, All Subjects): 148 ng·h/mL
AUC(0-t) ([1]; Day 1, EM): 133 ng·h/mL
AUC(0-t) ([1]; Day 1, PM): 198 ng·h/mL
AUC(0-t) ([1]; Day 4, All Subjects): 886 ng·h/mL
AUC(0-t) ([1]; Day 4, EM): 812 ng·h/mL
AUC(0-t) ([1]; Day 4, PM): 1150 ng·h/mL
AUC(0-t) ([1]; Day 8, All Subjects): 1160 ng·h/mL
AUC(0-t) ([1]; Day 8, EM): 1050 ng·h/mL
AUC(0-t) ([1]; Day 8, PM): 1530 ng·h/mL
Cmax ([1]; Day 1, All Subjects): 17.3 ng/mL
Cmax ([1]; Day 1, EM): 15.9 ng/mL
Cmax ([1]; Day 1, PM): 22.3 ng/mL
Cmax ([1]; Day 4, All Subjects): 83.1 ng/mL
Cmax ([1]; Day 4, EM): 76.7 ng/mL
Cmax ([1]; Day 4, PM): 106 ng/mL
Cmax ([1]; Day 8, All Subjects): 105 ng/mL
Cmax ([1]; Day 8, EM): 95.5 ng/mL
Cmax ([1]; Day 8, PM): 136 ng/mL
half-life ([1]; Day 8, All Subjects): 20.3 h
half-life ([1]; Day 8, EM): 13.1 h
half-life ([1]; Day 8, PM): 42 h
Tmax ([1]; Day 1, All Subjects): 7.11 h
Tmax ([1]; Day 1, EM): 6.85 h
Tmax ([1]; Day 1, PM): 8 h
Tmax ([1]; Day 4, All Subjects): 5.55 h
Tmax ([1]; Day 4, EM): 5.42 h
Tmax ([1]; Day 4, PM): 6 h
Tmax ([1]; Day 8, All Subjects): 5.77 h
Tmax ([1]; Day 8, EM): 5.99 h
Tmax ([1]; Day 8, PM): 4.99 h
Fold increase in AUC (0-12) from Day 1 to Day 8 ([1]; poor metabolizers): 6.1 fold
Change in VAS QOL score, Max [2, 4]: 27
Change in VAS QOL score, Mean [2, 4]: −17.41
Change in VAS QOL score, Median [2, 4]: −11.0
Change in VAS QOL score, Min [2, 4]: −90.5
Change in VAS QOR score, Max [2, 4]: 23.5
Change in VAS QOR score, Mean [2, 4]: −9.98
Change in VAS QOR score, Median [2, 4]: −4.50
Change in VAS QOR score, Min [2, 4]: −71.0
Change in VAS QOL score, Max ([2]; Day 15 minus Day 1): 55
Change in VAS QOL score, Mean ([2]; Day 15 minus Day 1): −17.14
Change in VAS QOL score, Median ([2]; Day 15 minus Day 1): −13
Change in VAS QOL score, Min ([2]; Day 15 minus Day 1): −90
Change in VAS QOR score, Max ([2]; Day 15 minus Day 1): 34
Change in VAS QOR score, Mean ([2]; Day 15 minus Day 1): −11.75
Change in VAS QOR score, Median ([2]; Day 15 minus Day 1): −7
Change in VAS QOR score, Min ([2]; Day 15 minus Day 1): −71
Change in VAS QOL score, Max ([2]; Day 29 minus Day 1): 27
Change in VAS QOL score, Mean ([2]; Day 29 minus Day 1): −19.31
Change in VAS QOL score, Median ([2]; Day 29 minus Day 1): −7
Change in VAS QOL score, Min ([2]; Day 29 minus Day 1): −91
Change in VAS QOR score, Max ([2]; Day 29 minus Day 1): 26
Change in VAS QOR score, Mean ([2]; Day 29 minus Day 1): −10.38
Change in VAS QOR score, Median ([2]; Day 29 minus Day 1): −3.0
Change in VAS QOR score, Min ([2]; Day 29 minus Day 1): −71
concentration of DM in plasma, Max [3]: 15.81
concentration of DM in plasma, Mean [3]: 5.18
concentration of DM in plasma, Median [3]: 4.55
concentration of DM in plasma, Min [3]: 0.35
